In patent publication US10040791B2, “Isoxazole derivative as mutant isocitrate dehydrogenase 1 inhibitor” (Daiichi Sankyo Company, Limited, priority 2014, dated 2018):
pIC50: −log10 of the molar value. Like-named read-outs stand apart in the source and are kept apart here.

What was measured:
[1] = tested on: HT1080 xenografted mice (IDH1R132C); assay: 2-HG production inhibitory activity using HT1080 xenografted mice; assay type: in vivo, mouse; settings: Mus musculus, HT-1080, po, 6 h, read-out: Test Example 5 Ratio (%)
Description: HT1080 xenografted mice having successfully engrafted tumors were given by oral gavage each compound at 75 mg/kg a total of three times twice a day. The compound was suspended in a vehicle solution at 7.5 mg/mL using a homogenizer. Then, the suspension was stored at −20° C., thawed immediately before the administration, and given to mice. A negative control group for the test was given a vehicle by oral gavage. The body weights of the mice were measured using an automatic balance for small animals. The dosing solution was administered at a dose of 10 mL/kg body weight.
6 hours after the final administration, each mouse was euthanized with carbon dioxide. A portion of a tumor was collected, and its weight was measured using an electronic balance. Then, the tumor was frozen on dry ice. To the frozen tumor, methanol was added in an amount of 14 times the tumor weight. The resulting tumor was homogenized with Beads shocker (Yasui Kikai Corp.) and then incubated for 15 minutes in a freezer at −20° C. After centrifugation at 15000 rpm at 4° C. for 15 minutes using a high-speed refrigerated microcentrifuge, 250 μL of methanol and 400 μL of ultrapure water were added to 150 μL of the obtained supernatant. The prepared samples were subjected to 2-HG measurement.

[2] = biological target: IDH1R132C (Homo sapiens (Human), UniProt O75874, R132C); assay: Inhibitory activity against IDH1R132C enzyme (NADPH detection, WST-8); assay type: biochemical; settings: 10 nM, residual NADPH detected with WST-8, read-out: Test Example 1 IDH1 R132C IC50
[3] = tested on: HT-1080 cells expressing IDH1R132C; assay: 2-HG production inhibitory activity using HT1080 cell; assay type: cell-based, human; settings: Homo sapiens; for pIC50: HT-1080, 2-HG production, HT1080 cells, read-out: Test Example 3 IC50
Description: Then, 100 μL of growth medium B was added to each well, further 25 μL of a solution of each compound diluted to a predetermined concentration with growth medium B was added to each well, and the cells were incubated at 37° C. for 2 days under 5% CO2. […] Then, 150 μL of ultrapure water was further added to each well, and the mixture was stirred by pipetting and stored at −20° C.
The preserved solutions were thawed at room temperature.

[4] = 2-HG production, HT1080 xenografted mice

Sequence of IDH1R132C (O75874 whole entry R132C): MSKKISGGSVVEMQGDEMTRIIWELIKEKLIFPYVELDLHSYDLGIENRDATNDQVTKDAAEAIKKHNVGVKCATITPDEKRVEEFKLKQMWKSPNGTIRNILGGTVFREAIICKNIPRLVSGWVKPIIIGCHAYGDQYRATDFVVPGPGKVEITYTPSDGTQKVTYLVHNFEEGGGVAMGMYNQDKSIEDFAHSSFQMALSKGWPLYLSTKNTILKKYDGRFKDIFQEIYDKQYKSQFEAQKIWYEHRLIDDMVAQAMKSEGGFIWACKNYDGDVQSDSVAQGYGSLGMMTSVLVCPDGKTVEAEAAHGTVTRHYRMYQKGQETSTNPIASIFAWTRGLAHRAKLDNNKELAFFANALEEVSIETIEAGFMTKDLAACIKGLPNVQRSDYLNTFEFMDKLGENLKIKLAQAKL

pIC50 [2]	pIC50 [3]	Structure (SMILES)	response vs control in vivo at 75 mg/kg [1, 4] [%]	response vs control in vivo at 75 mg/kg [1] [%]	IC50 ([3]; HT-1080, read-out: Test Example 3 IC50 (nM)) [nM]
6.77	7.19	CC1(c2onc(-c3c(Cl)cc(Cl)cc3Cl)c2C(=O)n2cc3c4c(cccc42)/C(=C/C(=O)O)CC3)CC(F)(F)C1 [Example 19]	79	–	–
6.72	6.96	CC(C)(C)c1onc(-c2c(Cl)cc(Cl)cc2Cl)c1C(=O)n1ccc2c(/C=C/C(=O)O)cccc21 [Example 22, (2E)-3-(1-{[5-(tert-Butyl)-3-(2,4,6-trichlorophenyl)-1,2-oxazol-4-yl]carbonyl}-1H-indol-4-yl)prop-2-enoic acid]	13	–	–
6.99	7.03	Cc1cn(C(=O)c2c(-c3c(Cl)cc(Cl)cc3Cl)noc2C(C)C)c2cccc(/C=C/C(=O)O)c12 [Example 29, (2E)-3-(1-{[5-(Propan-2-yl)-3-(2,4,6-trichlorophenyl)-1,2-oxazol-4-yl]carbonyl}-3-methyl-1H-indol-4-yl)prop-2-enoic acid]	39	–	–
6.71	7.37	Cc1cn(C(=O)c2c(-c3c(Cl)cc(Cl)cc3Cl)noc2C(C)(C)C)c2cccc(/C=C/C(=O)O)c12 [Example 33, (2E)-3-(1-{[5-(tert-Butyl)-3-(2,4,6-trichlorophenyl)-1,2-oxazol-4-yl]carbonyl}-3-methyl-1H-indol-4-yl)prop-2-enoic acid]	15	–	–
6.44	6.68	CC(C)(C)c1noc(-c2c(Cl)cc(Cl)cc2Cl)c1C(=O)n1ccc2c(/C=C/C(=O)O)cccc21 [Example 34, (2E)-3-(1-{[3-(tert-Butyl)-5-(2,4,6-trichlorophenyl)-1,2-oxazol-4-yl]carbonyl}-1H-indol-4-yl)prop-2-enoic acid]	55	–	–
6.79	6.61	CC(C)(C)c1onc(-c2c(F)cc(Cl)cc2Cl)c1C(=O)n1ccc2c(/C=C/C(=O)O)cccc21 [Example 35, (2E)-3-(1-{[5-(tert-Butyl)-3-(2,4-dichloro-6-fluorophenyl)-1,2-oxazol-4-yl]carbonyl}-1H-indol-4-yl)prop-2-enoic acid]	64	–	–
6.96	6.77	CC(C)(F)c1onc(-c2c(Cl)cc(Cl)cc2Cl)c1C(=O)n1ccc2c(/C=C/C(=O)O)cccc21 [Example 36, (2E)-3-(1-{[5-(2-Fluoropropan-2-yl)-3-(2,4,6-trichlorophenyl)-1,2-oxazol-4-yl]carbonyl}-1H-indol-4-yl)prop-2-enoic acid]	43	–	–
6.93	6.83	CC1(c2onc(-c3c(Cl)cc(Cl)cc3Cl)c2C(=O)n2ccc3c(/C=C/C(=O)O)cccc32)CC1 [Example 37, (2E)-3-(1-{[5-(1-Methylcyclopropyl)-3-(2,4,6-trichlorophenyl)-1,2-oxazol-4-yl]carbonyl}-1H-indol-4-yl)prop-2-enoic acid]	35	–	–
6.63	6.70	Cc1cc(Cl)c(-c2noc(C(C)(C)C)c2C(=O)n2ccc3c(/C=C/C(=O)O)cccc32)c(Cl)c1 [Example 38, (2E)-3-(1-{[5-(tert-Butyl)-3-(2,6-dichloro-4-methylphenyl)-1,2-oxazol-4-yl]carbonyl}-1H-indol-4-yl)prop-2-enoic acid]	61	–	–
6.80	7.24	CC(C)(C)c1onc(-c2c(Cl)cc(Cl)cc2Cl)c1C(=O)n1cc(F)c2c(/C=C/C(=O)O)cccc21 [Example 40, (2E)-3-(1-{[5-(tert-Butyl)-3-(2,4,6-trichlorophenyl)-1,2-oxazol-4-yl]carbonyl}-3-fluoro-1H-indol-4-yl)prop-2-enoic acid]	18	–	–

Structure (SMILES)	pIC50 [2]	pIC50 [3]	response vs control in vivo at 75 mg/kg [1, 4] [%]	response vs control in vivo at 75 mg/kg [1] [%]	IC50 ([3]; HT-1080, read-out: Test Example 3 IC50 (nM)) [nM]
Cc1cn(C(=O)c2c(-c3c(Cl)cc(Cl)cc3Cl)noc2C(C)(C)F)c2cccc(/C=C/C(=O)O)c12 [Example 21, (2E)-3-(1-{[5-(2-Fluoropropan-2-yl)-3-(2,4,6-trichlorophenyl)-1,2-oxazol-4-yl]carbonyl}-3-methyl-1H-indol-4-yl)prop-2-enoic acid]	7.02	–	–	14	56
